Experimental data taken from patent US11224588B2, “Combination of lipoic acid and taurine as osmoprotective agent” (OPHTALMIS MONACO, priority 2015, dated 2022).

Tests used:
[1] = system: human corneal (HCE) cells; assay: Cell viability (XTT assay) after hyperosmolar stress, HCE cells; assay type: cell-based; settings: at 0.005% and 0.001% (w/v), 4 h and 8 h post-stress; FIG. 1
Method: A study was carried out to determine the osmoprotective capacity of sodium lipoate (A) during hyperosmolar stress on human conjunctival (WKD) and corneal (HCE) cells. In a second phase, tests were carried out to compare the effect of lipoic acid, glycerin (B), and taurine (C), individually and when the molecules were combined, on HCE cells under hyperosmolar stress conditions. The osmoprotective activity of A, then A with B and C, was evaluated by measuring cell viability in particular. To that end, cells were preincubated for 17 h with the test substance(s). Next, the medium was removed and the cells were subjected to hyperosmolar stress by addition of sodium chloride (100 mM NaCl) to the culture medium (M199 for the WKD cells and KSFM for the HCE cells). Cell-growth control cells were contacted with isotonic medium. Cell viability was analyzed pre-osmotic stress (0 h) in order to measure the effect of the molecules remaining in contact with the cells during the 17 h of incubation, then at 4 h, 8 h and 24 h post-induction of osmotic stress. The cell viability measurement was carried out via an XTT assay. Various concentrations of A were tested for the “molecule alone” tests: 0.0005%, 0.001%, 0.005%, 0.01% and 0.05% w/v. […] To ensure the validity and the significance of the data, the results obtained were analyzed statistically. […]

corneal cells = assay: Antioxidant effect on corneal cells; assay type: cell-based

SMILES: O=C(O)CCCCC1CCSS1 (centres unmarked) [Sodium Lipoate, 5-(1,2-dithiolan-3-yl)pentanoic acid]
- Osmoprotective activity against osmotic stress [1]: high osmoprotective activity
- Antioxidant effect (corneal cells): rather weak
